GI50 and TGI data for eight molecules are collected here from PubChem BioAssay (NCI).

Several values for one entry are separate records, joined by “and”; a condition that tells them apart may be missing. Identical values can stand only once.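 Results reflect a 48-hour exposure of cells in 96-well plates to compound at five concentrations. GI50: concentration for 50% inhibition of growth. TGI: concentration producing complete growth inhibition.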

Test systems include HCT-15 colon; MCF7 breast; MOLT-4 leukemia; OVCAR-8 ovarian; RXF 393 renal; SF-295 CNS; SK-MEL-28 melanoma; SNB-75 CNS; UACC-257 melanoma; UACC-62 melanoma.
Holding throughout (assay): NCI-60 cell line screen, 48 h

In the case of `COc1ccc(-c2nc3ccccn3c2/C=C/C(=O)c2cc(OC)c(OC)c(OC)c2)cc1`, the GI50 is 4.85 µM in the experiment with HCT-15 colon; 2.38 µM with MCF7 breast; 32.9 µM in the experiment with MOLT-4 leukemia; 3.92 µM with OVCAR-8 ovarian; 2.94 µM with RXF 393 renal; 15.2 µM in the experiment with SF-295 CNS. The GI50 with SK-MEL-28 melanoma is 7.1 µM; in the experiment on SNB-75 CNS, 5.49 µM; in the experiment on UACC-257 melanoma it was 5.85 µM; in the experiment on UACC-62 melanoma it was 5.58 µM. Also, the TGI in the experiment with HCT-15 colon was over 100 µM; in the experiment with MCF7 breast, 21.4 µM; with MOLT-4 leukemia it was over 100 µM; with OVCAR-8 ovarian, over 100 µM; in the experiment on RXF 393 renal it was over 100 µM; with SF-295 CNS, 69.5 µM. Moreover, the TGI with SK-MEL-28 melanoma was over 100 µM; in the experiment with SNB-75 CNS, 54.5 µM; in the experiment on UACC-257 melanoma, over 100 µM; in the experiment on UACC-62 melanoma, over 100 µM.
For `COc1ccc2c(c1)n([O-])c1ccccc1[n+]2=O`, the TGI is > 100 µM and 37.3 µM in the experiment on HCT-15 colon; > 100 µM and 36 µM with MCF7 breast; over 100 µM in the experiment with MOLT-4 leukemia; > 100 µM and 55.7 µM in the experiment with OVCAR-8 ovarian; 81.2 µM and 34.8 µM with RXF 393 renal; > 100 µM and 48.6 µM in the experiment with SF-295 CNS. Moreover, the TGI in the experiment with SK-MEL-28 melanoma was over 100 µM; with SNB-75 CNS, over 100 µM; in the experiment on UACC-257 melanoma, > 100 µM and 40.2 µM; in the experiment on UACC-62 melanoma it was > 100 µM and 65 µM. Further, the GI50 with MCF7 breast is 20.3 µM and 8.97 µM; in the experiment on RXF 393 renal it was 25 µM and 10.3 µM; with UACC-257 melanoma it was 46.5 µM and 17.9 µM.
On to `COc1cc2c(cc1Nc1nc(Nc3ccsc3C(N)=O)c3cc[nH]c3n1)N(C(=O)CN(C)C)CCC2(C)C`, for which the GI50 with HCT-15 colon was 1.84 µM; in the experiment with MCF7 breast, under 0.0025 µM; with MOLT-4 leukemia, 1.9 µM; with OVCAR-8 ovarian, 1.64 µM; in the experiment on RXF 393 renal, 1.67 µM; in the experiment on SF-295 CNS it was 3.33 µM. In addition, the GI50 is 3.06 µM with SK-MEL-28 melanoma, 2.7 µM in the experiment on SNB-75 CNS, 0.0753 µM in the experiment with UACC-257 melanoma and 1.77 µM in the experiment with UACC-62 melanoma. For the same molecule, the TGI in the experiment with HCT-15 colon amounted to 5.62 µM; with MCF7 breast it was 2.97 µM; with MOLT-4 leukemia it was 8.91 µM; in the experiment on OVCAR-8 ovarian, 5.69 µM; in the experiment with RXF 393 renal, 5.09 µM; in the experiment with SF-295 CNS it was 7.39 µM. Further, the TGI with SK-MEL-28 melanoma was determined as 6.41 µM; with SNB-75 CNS, 5.9 µM; with UACC-257 melanoma it was 4.34 µM; with UACC-62 melanoma, 5.44 µM.
For `COc1ccc(OC)c(/C=C(/C)[N+](=O)[O-])c1`, the GI50 in the experiment on HCT-15 colon was 1.74 µM; in the experiment with MCF7 breast, 0.832 µM; in the experiment with MOLT-4 leukemia it was 3.32 µM; with OVCAR-8 ovarian, 2.13 µM; in the experiment on RXF 393 renal, 1.72 µM; with SF-295 CNS, 11.2 µM. Also, the GI50 in the experiment with SK-MEL-28 melanoma is 2.22 µM; in the experiment with SNB-75 CNS it was 4.73 µM; in the experiment on UACC-257 melanoma it was 1.69 µM; in the experiment with UACC-62 melanoma it was 2.06 µM. Moreover, the TGI was 3.68 µM in the experiment on HCT-15 colon; 2.21 µM in the experiment with MCF7 breast; over 100 µM with MOLT-4 leukemia; 4.91 µM in the experiment with OVCAR-8 ovarian; 3.18 µM in the experiment with RXF 393 renal; 24.8 µM in the experiment with SF-295 CNS. Further, the TGI stood at 4.73 µM with SK-MEL-28 melanoma, 16 µM in the experiment on SNB-75 CNS, 3.22 µM in the experiment on UACC-257 melanoma and 4.54 µM with UACC-62 melanoma.
As to `COC(=O)C1=C(C)NC(C)=C(C(=O)OC)C1/C=C(Cl)/C=C/c1ccccc1`, the GI50 with HCT-15 colon was 29.7 µM; in the experiment on MCF7 breast it was 24.4 µM; with MOLT-4 leukemia, 18.4 µM; with OVCAR-8 ovarian it was 36 µM; in the experiment on RXF 393 renal, 18.4 µM; in the experiment with SF-295 CNS, 17.3 µM. The GI50 with SK-MEL-28 melanoma is 17.1 µM; in the experiment on SNB-75 CNS, 20 µM; in the experiment with UACC-257 melanoma, 16.8 µM; in the experiment with UACC-62 melanoma, 16.1 µM. Besides, the TGI in the experiment on HCT-15 colon is over 100 µM; with MCF7 breast, 78.5 µM; in the experiment with MOLT-4 leukemia, 41 µM; in the experiment on OVCAR-8 ovarian it was over 100 µM; in the experiment on RXF 393 renal it was 46.6 µM; in the experiment with SF-295 CNS it was 38.6 µM. Also, the TGI is 35 µM with SK-MEL-28 melanoma, 54.8 µM in the experiment on SNB-75 CNS, 41 µM in the experiment on UACC-257 melanoma and 30.8 µM in the experiment on UACC-62 melanoma.
In the case of `CCN(C(=O)c1cc(F)ccc1Oc1cncnc1N1CC2(CCN(CC3CCC(NS(=O)(=O)CC)CC3)CC2)C1)C(C)C` (stereo not drawn), the GI50 in the experiment on HCT-15 colon, in the experiment with MCF7 breast, in the experiment with MOLT-4 leukemia, in the experiment on OVCAR-8 ovarian, with RXF 393 renal and in the experiment on SF-295 CNS was over 100 µM each time. Besides, the GI50 with SK-MEL-28 melanoma, with SNB-75 CNS, in the experiment on UACC-257 melanoma and in the experiment with UACC-62 melanoma was over 100 µM each time. In addition, the TGI in the experiment on HCT-15 colon, with MCF7 breast, with MOLT-4 leukemia, with OVCAR-8 ovarian, in the experiment on RXF 393 renal and in the experiment on SF-295 CNS was over 100 µM in each case. Further, the TGI with SK-MEL-28 melanoma, in the experiment on SNB-75 CNS, in the experiment with UACC-257 melanoma and in the experiment with UACC-62 melanoma was over 100 µM throughout.
As for `O=C1c2ccccc2C(=O)c2c1ccc(C1C(=O)c3ccccc3C1=O)c2-c1c(C2C(=O)c3ccccc3C2=O)ccc2c1C(=O)c1ccccc1C2=O`, the TGI in the experiment with HCT-15 colon was over 100 µM; in the experiment on MCF7 breast, over 100 µM; in the experiment with MOLT-4 leukemia, 82.5 µM; in the experiment on OVCAR-8 ovarian, over 100 µM; in the experiment with RXF 393 renal, over 100 µM; with SF-295 CNS it was over 100 µM. In addition, the TGI with SK-MEL-28 melanoma, in the experiment with SNB-75 CNS, with UACC-257 melanoma and in the experiment with UACC-62 melanoma was over 100 µM in each case.
In the case of `Cc1cc(Cl)ccc1NC(=O)c1cc2ccccc2cc1O`, the GI50 with HCT-15 colon was 0.641 µM; in the experiment on MCF7 breast it was 1.57 µM; with MOLT-4 leukemia, 0.651 µM; in the experiment on OVCAR-8 ovarian it was 0.882 µM; in the experiment on RXF 393 renal it was 1.18 µM; in the experiment with SF-295 CNS, 2.56 µM. In addition, the GI50 was 0.767 µM in the experiment on SK-MEL-28 melanoma, 7.14 µM in the experiment with SNB-75 CNS, 0.611 µM in the experiment with UACC-257 melanoma and 0.354 µM with UACC-62 melanoma. The TGI is over 100 µM with HCT-15 colon; over 100 µM in the experiment on MCF7 breast; over 36.2 µM in the experiment on MOLT-4 leukemia; over 100 µM in the experiment with OVCAR-8 ovarian; 8.6 µM in the experiment on RXF 393 renal; over 28.6 µM in the experiment on SF-295 CNS. Also, the TGI in the experiment on SK-MEL-28 melanoma is over 100 µM; with SNB-75 CNS, over 100 µM; in the experiment with UACC-257 melanoma, 3.84 µM; with UACC-62 melanoma, over 100 µM.
